# Reference: US3982931A, “N,N-di-sec.butyl-benzamide herbicides” (priority 1967, dated 1976)
# Key:
# Type in all cases: in vivo
# [1] = tested on: zea mais L. (corn); assay: activity on agrarian species, soil treatment one day after sowing
# Method in brief: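 Crop injury rated 0–4 relative to control, from no difference up to complete germination failure or arrest of emerging plants; in-between responses get both values. Product spread on soil at 1–14 kg/ha (1, 3, 6, 8, 10, 12, 14) one day post-sowing.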
# [2] = tested on: artemisia vulgaris L.; assay: herbicidal activity, soil treatment one day after sowing
# [3] = tested on: beta vulgaris L. (sugar-beet); assay: activity on agrarian species, soil treatment one day after sowing
# Method in brief: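 Product applied to soil one day after sowing at 1, 3, 6, 8, 10, 12 and 14 kg/ha. Crop damage scored against untreated control on a 0-4 scale, 4 meaning no germination or total containment of emerging plants.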
# [4] = tested on: amaranthus retroflexus L.; assay: herbicidal activity, soil treatment one day after sowing
# [5] = tested on: Hordeum vulgare L. (barley); assay: activity of PA 106 on useful species
# Source text: (§1) Method of evaluation of the results (of tests):
# (§2) 0 = no activity and no difference with respect to the control;
# (§3) 1 slight differences with respect to the control;
# (§4) 3 = considerable activity with damages that definitely impair the further development of most of the small plants; an activity degree already useful for practical purposes;
# (§5) 4 = maximum of activity with lack of germination or total containment of the small plants in the emerging stage.
# (§6) In the case of an intermediate activity between two classes of the scale, both values are recorded with the one which corresponds to the preeminent activity preceding.
# (§7) TABLE 3 reports data on the herbicidal activity against infesting herbs, while TABLE 4 reports data concerning the activity on useful species of agricultural cultivations. These tables employ the criterion explained previously. The product was spread on the soil one day after sowing, in quantities of 1, 3, 6, 8, 10, 12 and 14 kg/ha.
# [6] = tested on: triticum vulgare L. (wheat); assay: activity on agrarian species, soil treatment one day after sowing
# Method in brief: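 Wheat effects rated against untreated control on a 0 (no difference) to 4 (no germination or emergence fully contained) scale, with two-class scores for intermediate activity. Application was to soil one day post-sowing at rates of 1, 3, 6, 8, 10, 12 and 14 kg/ha.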
# [7] = tested on: Gladiolus sp.; assay: activity of PA 106 on useful species (treatment after unearthing the tubers)
# Source text: as §1, §2, §3, §4, §5, §6, §7
# In the case of gladiolus, the treatment was carried out after unearthing the tubers.
# [8] = tested on: setaria glauca L.; assay: herbicidal activity, soil treatment one day after sowing
# [9] = tested on: chenopodium album L.; assay: as above
# [10] = tested on: pisum sativum L. (pea); assay: activity on agrarian species, soil treatment one day after sowing
smiles,measurement,setting,value
"CCC(C)N(C(=O)c1ccc(Cl)c(Cl)c1)C(C)CC (stereo not drawn) [PA106, 3,4-dichloro-N,N-di-sec.butyl-benzamide]","activity on useful species, Table 4",[1]; 1 kg/ha,0
same,"activity on useful species, Table 4",[1]; 3 kg/ha,0
same,"activity on O, 0-4 scale",[1]; 6 kg/ha,0
same,"activity on useful species, Table 4",[1]; 6 kg/ha,0
same,"activity on useful species, Table 4",[1]; 8 kg/ha,0
same,"activity on useful species, Table 4",[1]; 10 kg/ha,0
same,"activity on useful species, Table 4",[1]; 12 kg/ha,0/1
same,"activity on useful species, Table 4",[1]; 14 kg/ha,1
same,"herbicidal activity, Table 3",[2]; 1 kg/ha,0
same,"activity on B, 0-4 scale",[2]; 2 kg/ha,0-1
same,"herbicidal activity, Table 3",[2]; 3 kg/ha,1
same,"activity on B, 0-4 scale",[2]; 4 kg/ha,1-2
same,"activity on B, 0-4 scale",[2]; 6 kg/ha,3
same,"herbicidal activity, Table 3",[2]; 6 kg/ha,3
same,"herbicidal activity, Table 3",[2]; 8 kg/ha,3
same,"herbicidal activity, Table 3",[2]; 10 kg/ha,3
same,"herbicidal activity, Table 3",[2]; 12 kg/ha,4/3
same,"herbicidal activity, Table 3",[2]; 14 kg/ha,4
same,"activity on useful species, Table 4",[3]; 1 kg/ha,0
same,"activity on useful species, Table 4",[3]; 3 kg/ha,0
same,"activity on H, 0-4 scale",[3]; 6 kg/ha,1
same,"activity on useful species, Table 4",[3]; 6 kg/ha,1
same,"activity on useful species, Table 4",[3]; 8 kg/ha,1
same,"activity on useful species, Table 4",[3]; 10 kg/ha,1/2
same,"activity on useful species, Table 4",[3]; 12 kg/ha,2
same,"activity on useful species, Table 4",[3]; 14 kg/ha,2/3
same,"herbicidal activity, Table 3",[4]; 1 kg/ha,0
same,"activity on A, 0-4 scale",[4]; 2 kg/ha,1
same,"herbicidal activity, Table 3",[4]; 3 kg/ha,1/2
same,"activity on A, 0-4 scale",[4]; 4 kg/ha,2
same,"activity on A, 0-4 scale",[4]; 6 kg/ha,3
same,"herbicidal activity, Table 3",[4]; 6 kg/ha,3
same,"herbicidal activity, Table 3",[4]; 8 kg/ha,4/3
same,"herbicidal activity, Table 3",[4]; 10 kg/ha,4
same,"herbicidal activity, Table 3",[4]; 12 kg/ha,4
same,"herbicidal activity, Table 3",[4]; 14 kg/ha,4
same,"activity on useful species, Table 4",[5]; 1 kg/ha,0
same,"activity on useful species, Table 4",[5]; 3 kg/ha,0
same,"activity on useful species, Table 4",[5]; 6 kg/ha,0
same,"activity on useful species, Table 4",[5]; 8 kg/ha,0
same,"activity on useful species, Table 4",[5]; 10 kg/ha,0/1
same,"activity on useful species, Table 4",[5]; 12 kg/ha,0/1
same,"activity on useful species, Table 4",[5]; 14 kg/ha,0/1
same,"activity on useful species, Table 4",[6]; 1 kg/ha,0
same,"activity on useful species, Table 4",[6]; 3 kg/ha,0
same,"activity on N, 0-4 scale",[6]; 6 kg/ha,0
same,"activity on useful species, Table 4",[6]; 6 kg/ha,0
same,"activity on useful species, Table 4",[6]; 8 kg/ha,0/1
same,"activity on useful species, Table 4",[6]; 10 kg/ha,0/1
same,"activity on useful species, Table 4",[6]; 12 kg/ha,1
same,"activity on useful species, Table 4",[6]; 14 kg/ha,1
same,"activity on useful species, Table 4",[7]; 1 kg/ha,0
same,"activity on useful species, Table 4",[7]; 3 kg/ha,0
same,"activity on useful species, Table 4",[7]; 6 kg/ha,0
same,"activity on useful species, Table 4",[7]; 8 kg/ha,0
same,"activity on useful species, Table 4",[7]; 10 kg/ha,0
same,"activity on useful species, Table 4",[7]; 12 kg/ha,0
same,"activity on useful species, Table 4",[7]; 14 kg/ha,0
same,"herbicidal activity, Table 3",[8]; 1 kg/ha,2/3
same,"herbicidal activity, Table 3",[8]; 3 kg/ha,3
same,"activity on E, 0-4 scale",[8]; 4 kg/ha,3-4
same,"activity on E, 0-4 scale",[8]; 6 kg/ha,4
same,"herbicidal activity, Table 3",[8]; 6 kg/ha,4
same,"herbicidal activity, Table 3",[8]; 8 kg/ha,4
same,"herbicidal activity, Table 3",[8]; 10 kg/ha,4
same,"herbicidal activity, Table 3",[8]; 12 kg/ha,4
same,"herbicidal activity, Table 3",[8]; 14 kg/ha,4
same,"herbicidal activity, Table 3",[9]; 1 kg/ha,0
same,"activity on C, 0-4 scale",[9]; 2 kg/ha,0-1
same,"herbicidal activity, Table 3",[9]; 3 kg/ha,1
same,"activity on C, 0-4 scale",[9]; 4 kg/ha,1-2
same,"activity on C, 0-4 scale",[9]; 6 kg/ha,3
same,"herbicidal activity, Table 3",[9]; 6 kg/ha,3
same,"herbicidal activity, Table 3",[9]; 8 kg/ha,2/3
same,"herbicidal activity, Table 3",[9]; 10 kg/ha,3
same,"herbicidal activity, Table 3",[9]; 14 kg/ha,3/4
same,"activity on useful species, Table 4",[10]; 1 kg/ha,0
same,"activity on useful species, Table 4",[10]; 3 kg/ha,0
same,"activity on L, 0-4 scale",[10]; 6 kg/ha,0
same,"activity on useful species, Table 4",[10]; 6 kg/ha,0
same,"activity on useful species, Table 4",[10]; 8 kg/ha,0
same,"activity on useful species, Table 4",[10]; 10 kg/ha,0
same,"activity on useful species, Table 4",[10]; 12 kg/ha,0
same,"activity on useful species, Table 4",[10]; 14 kg/ha,0
